Measured values published in patent US6489469B1, “Method for storing or transporting erythritol solution” (Nikken Chemicals Co., Ltd., priority 1999, dated 2002).

Legend:
[1] = test system: Saccharomyces cerevisiae ATCC 9763; test: Viable Count of Saccharomyces cerevisiae ATCC 9763 in Erythritol Solution; assay type: cell-based; conditions: for The Number of Viable Cell: 50° C.
Procedure: (§1) Erythritol solutions of respective concentrations in the range of from 30 to 60% were prepared. To these were inoculated Staphylococcus aureus IFO 13276, Bacillus subtilis IFO 3134, and Escherichia coli IFO 3972 as bacteria, Candida albicans IFO 1549 and Saccharomyces cerevisiae ATCC 9763 as yeasts, Aspergillus niger IFO 6342, Aspergillus flavus IFO 6343, and Penicillium funiculosum IFO 6345 as fungi, respectively, in a population (concentration) of 10,000 cells/mL or more. After the inoculation, the solutions were stored at 30, 37, 45, 50, or 60° C., respectively, for 56 days and the number of viable cell was determined daily. The determination of the number of viable cell was performed by a method of coating 0.1 mL of appropriately diluted sample cultivation on an agar plate and cultivating and counting the number of viable cell (the number of colony) that grew after the cultivation.

[2] = test system: Aspergillus niger IFO 6342; test: Viable Count of Aspergillus niger IFO 6342 in Erythritol Solution; assay type: cell-based
Procedure: as §1

OC[C@@H](O)[C@@H](O)CO [Erythritol Solution, erythritol]
7 days: time after which microbes died ([2]; temperature of 50° C. or more)
0 cells/mL: The Number of Viable Cell ([1]; 40% w/w, Day 3) | The Number of Viable Cell ([1]; 40% w/w, Day 7) | The Number of Viable Cell ([1]; 40% w/w, Day 14) | The Number of Viable Cell ([1]; 40% w/w, Day 28) | The Number of Viable Cell ([1]; 40% w/w, Day 56) | The Number of Viable Cell ([1]; 50% w/w, Day 3) | The Number of Viable Cell ([1]; 50% w/w, Day 7) | The Number of Viable Cell ([1]; 50% w/w, Day 14) | The Number of Viable Cell ([1]; 50% w/w, Day 28) | The Number of Viable Cell ([1]; 50% w/w, Day 56) | The Number of Viable Cell ([2]; 45° C., 30% w/w, Day 56) | The Number of Viable Cell ([2]; 45° C., 40% w/w, Day 28) | The Number of Viable Cell ([2]; 45° C., 40% w/w, Day 56) | The Number of Viable Cell ([2]; 45° C., 50% w/w, Day 28) | The Number of Viable Cell ([2]; 45° C., 50% w/w, Day 56) | The Number of Viable Cell ([2]; 50° C., 30% w/w, Day 3) | The Number of Viable Cell ([2]; 50° C., 30% w/w, Day 7) | The Number of Viable Cell ([2]; 50° C., 30% w/w, Day 14) | The Number of Viable Cell ([2]; 50° C., 30% w/w, Day 28) | The Number of Viable Cell ([2]; 50° C., 30% w/w, Day 56) | The Number of Viable Cell ([2]; 50° C., 40% w/w, Day 7) | The Number of Viable Cell ([2]; 50° C., 40% w/w, Day 14) | The Number of Viable Cell ([2]; 50° C., 40% w/w, Day 28) | The Number of Viable Cell ([2]; 50° C., 40% w/w, Day 56) | The Number of Viable Cell ([2]; 50° C., 50% w/w, Day 7) | The Number of Viable Cell ([2]; 50° C., 50% w/w, Day 14) | The Number of Viable Cell ([2]; 50° C., 50% w/w, Day 28) | The Number of Viable Cell ([2]; 50° C., 50% w/w, Day 56) | The Number of Viable Cell ([2]; 60° C., 30% w/w, Day 3) | The Number of Viable Cell ([2]; 60° C., 30% w/w, Day 7) | The Number of Viable Cell ([2]; 60° C., 30% w/w, Day 14) | The Number of Viable Cell ([2]; 60° C., 30% w/w, Day 28) | The Number of Viable Cell ([2]; 60° C., 30% w/w, Day 56) | The Number of Viable Cell ([2]; 60° C., 40% w/w, Day 3) | The Number of Viable Cell ([2]; 60° C., 40% w/w, Day 7) | The Number of Viable Cell ([2]; 60° C., 40% w/w, Day 14) | The Number of Viable Cell ([2]; 60° C., 40% w/w, Day 28) | The Number of Viable Cell ([2]; 60° C., 40% w/w, Day 56) | The Number of Viable Cell ([2]; 60° C., 50% w/w, Day 3) | The Number of Viable Cell ([2]; 60° C., 50% w/w, Day 7) | The Number of Viable Cell ([2]; 60° C., 50% w/w, Day 14) | The Number of Viable Cell ([2]; 60° C., 50% w/w, Day 28) | The Number of Viable Cell ([2]; 60° C., 50% w/w, Day 56) | The Number of Viable Cell ([2]; 60° C., 60% w/w, Day 3) | The Number of Viable Cell ([2]; 60° C., 60% w/w, Day 7) | The Number of Viable Cell ([2]; 60° C., 60% w/w, Day 14) | The Number of Viable Cell ([2]; 60° C., 60% w/w, Day 28) | The Number of Viable Cell ([2]; 60° C., 60% w/w, Day 56)
3 days: time after which microbes died ([1]; temperature of 50° C. or more)
≥ 10000 cells/mL: The Number of Viable Cell ([1]; 50% w/w, Day 0) | The Number of Viable Cell ([2]; 45° C., 30% w/w, Day 0) | The Number of Viable Cell ([2]; 45° C., 30% w/w, Day 3) | The Number of Viable Cell ([2]; 45° C., 30% w/w, Day 7) | The Number of Viable Cell ([2]; 45° C., 30% w/w, Day 14) | The Number of Viable Cell ([2]; 45° C., 30% w/w, Day 28) | The Number of Viable Cell ([2]; 45° C., 40% w/w, Day 0) | The Number of Viable Cell ([2]; 45° C., 40% w/w, Day 3) | The Number of Viable Cell ([2]; 45° C., 40% w/w, Day 7) | The Number of Viable Cell ([2]; 45° C., 40% w/w, Day 14) | The Number of Viable Cell ([2]; 45° C., 50% w/w, Day 0) | The Number of Viable Cell ([2]; 45° C., 50% w/w, Day 3) | The Number of Viable Cell ([2]; 45° C., 50% w/w, Day 7) | The Number of Viable Cell ([2]; 45° C., 50% w/w, Day 14) | The Number of Viable Cell ([2]; 50° C., 30% w/w, Day 0) | The Number of Viable Cell ([2]; 50° C., 40% w/w, Day 0) | The Number of Viable Cell ([2]; 50° C., 40% w/w, Day 3) | The Number of Viable Cell ([2]; 50° C., 50% w/w, Day 0) | The Number of Viable Cell ([2]; 50° C., 50% w/w, Day 3) | The Number of Viable Cell ([2]; 60° C., 30% w/w, Day 0) | The Number of Viable Cell ([2]; 60° C., 40% w/w, Day 0) | The Number of Viable Cell ([2]; 60° C., 50% w/w, Day 0) | The Number of Viable Cell ([2]; 60° C., 60% w/w, Day 0)
prevented from growing: growth of the microbes ([1]; temperature of 50° C. or more) | growth of the microbes ([2]; temperature of 50° C. or more)
